Results published in ChEMBL document CHEMBL3991601, “The target landscape of clinical kinase drugs” (Science, 2017).
Active and inactive are the calls of the source. Rule as the data show it, for most assays here: actives have a measured Kd and inactives only a lower limit.

Key:
[1] = biological target: T1, Inhibitor of nuclear factor kappa-B kinase subunit epsilon (Homo sapiens, UniProt Q14164)
T1 sequence (Q14164 whole entry): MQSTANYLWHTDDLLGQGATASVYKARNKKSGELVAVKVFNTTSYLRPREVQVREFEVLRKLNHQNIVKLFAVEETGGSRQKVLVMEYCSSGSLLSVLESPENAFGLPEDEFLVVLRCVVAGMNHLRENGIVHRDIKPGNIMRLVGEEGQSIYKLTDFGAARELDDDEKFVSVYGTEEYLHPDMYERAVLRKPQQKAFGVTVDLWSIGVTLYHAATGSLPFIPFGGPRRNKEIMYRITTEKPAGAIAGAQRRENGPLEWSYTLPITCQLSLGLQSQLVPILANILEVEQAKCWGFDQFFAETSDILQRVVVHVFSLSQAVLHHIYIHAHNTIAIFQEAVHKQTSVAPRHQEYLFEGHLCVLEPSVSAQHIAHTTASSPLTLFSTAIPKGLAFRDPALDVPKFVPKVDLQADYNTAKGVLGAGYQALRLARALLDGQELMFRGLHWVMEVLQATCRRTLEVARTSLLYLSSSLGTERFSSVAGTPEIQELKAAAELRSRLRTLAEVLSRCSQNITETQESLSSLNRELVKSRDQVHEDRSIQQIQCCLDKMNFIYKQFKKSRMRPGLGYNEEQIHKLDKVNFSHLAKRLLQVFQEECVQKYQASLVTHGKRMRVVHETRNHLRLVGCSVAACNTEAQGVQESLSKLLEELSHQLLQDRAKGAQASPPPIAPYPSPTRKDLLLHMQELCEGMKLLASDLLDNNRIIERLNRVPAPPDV

[2] = biological target: Serine/threonine-protein kinase N2 (Homo sapiens, UniProt Q16513)
Pyridoxal kinase = biological target: T2, Pyridoxal kinase (Homo sapiens, UniProt O00764)
T2 sequence (O00764 whole entry): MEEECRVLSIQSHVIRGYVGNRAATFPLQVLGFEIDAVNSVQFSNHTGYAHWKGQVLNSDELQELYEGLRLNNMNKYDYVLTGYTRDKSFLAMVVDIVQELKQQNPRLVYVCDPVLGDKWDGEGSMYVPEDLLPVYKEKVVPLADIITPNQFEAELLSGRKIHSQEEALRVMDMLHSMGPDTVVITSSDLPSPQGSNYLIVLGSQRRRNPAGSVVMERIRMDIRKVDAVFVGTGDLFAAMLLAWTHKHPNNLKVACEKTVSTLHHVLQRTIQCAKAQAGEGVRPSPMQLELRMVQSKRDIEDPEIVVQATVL

[3] = biological target: STE20-like serine/threonine-protein kinase (Homo sapiens, UniProt Q9H2G2)
Ephrin type-B receptor 2 = biological target: T3, Ephrin type-B receptor 2 (Homo sapiens, UniProt P29323)
T3 sequence (P29323 whole entry): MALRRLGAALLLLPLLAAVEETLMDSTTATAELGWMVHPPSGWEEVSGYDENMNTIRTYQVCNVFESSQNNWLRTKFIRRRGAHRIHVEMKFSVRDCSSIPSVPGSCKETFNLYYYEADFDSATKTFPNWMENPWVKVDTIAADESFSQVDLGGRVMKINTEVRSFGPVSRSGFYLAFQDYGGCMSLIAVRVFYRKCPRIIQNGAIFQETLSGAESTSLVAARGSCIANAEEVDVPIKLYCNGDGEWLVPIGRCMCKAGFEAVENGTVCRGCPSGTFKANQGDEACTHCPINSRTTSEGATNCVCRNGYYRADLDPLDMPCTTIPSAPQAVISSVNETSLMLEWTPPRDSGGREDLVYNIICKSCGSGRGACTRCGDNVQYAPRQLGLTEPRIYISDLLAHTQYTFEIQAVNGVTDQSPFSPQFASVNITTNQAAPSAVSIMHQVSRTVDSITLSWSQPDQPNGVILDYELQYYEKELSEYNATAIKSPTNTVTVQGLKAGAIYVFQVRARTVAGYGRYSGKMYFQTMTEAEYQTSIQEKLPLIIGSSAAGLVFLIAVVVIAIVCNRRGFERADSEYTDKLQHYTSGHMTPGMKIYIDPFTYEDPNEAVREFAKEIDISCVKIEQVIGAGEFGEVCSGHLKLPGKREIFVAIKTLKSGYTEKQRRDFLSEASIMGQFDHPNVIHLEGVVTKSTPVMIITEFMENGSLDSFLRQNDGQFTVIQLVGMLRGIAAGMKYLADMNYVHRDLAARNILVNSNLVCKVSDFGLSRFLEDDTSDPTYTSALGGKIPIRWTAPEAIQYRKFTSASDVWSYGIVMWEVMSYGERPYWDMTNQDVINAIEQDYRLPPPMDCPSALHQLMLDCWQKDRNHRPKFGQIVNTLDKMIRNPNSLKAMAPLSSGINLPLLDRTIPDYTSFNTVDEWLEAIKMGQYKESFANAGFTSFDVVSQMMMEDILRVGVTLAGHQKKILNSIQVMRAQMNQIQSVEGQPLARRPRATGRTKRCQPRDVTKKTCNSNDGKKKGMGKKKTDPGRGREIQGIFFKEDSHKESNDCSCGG

[4] = biological target: T4, Ferrochelatase, mitochondrial (Homo sapiens, UniProt P22830)
T4 sequence (P22830 whole entry): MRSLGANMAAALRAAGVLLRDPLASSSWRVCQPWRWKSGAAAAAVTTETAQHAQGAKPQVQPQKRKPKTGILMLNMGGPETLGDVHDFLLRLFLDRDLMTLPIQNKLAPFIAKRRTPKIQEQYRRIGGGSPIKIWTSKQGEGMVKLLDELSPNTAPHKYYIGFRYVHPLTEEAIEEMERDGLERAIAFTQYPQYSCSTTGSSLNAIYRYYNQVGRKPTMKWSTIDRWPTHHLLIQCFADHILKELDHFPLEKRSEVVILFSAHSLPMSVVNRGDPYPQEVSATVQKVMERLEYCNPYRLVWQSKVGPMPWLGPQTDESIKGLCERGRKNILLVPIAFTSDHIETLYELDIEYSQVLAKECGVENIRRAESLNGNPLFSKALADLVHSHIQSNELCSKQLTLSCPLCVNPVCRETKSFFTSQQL

[5] = biological target: Ras-related protein Rab-6A (Homo sapiens, UniProt P20340)
[6] = biological target: Mitogen-activated protein kinase 11 (Homo sapiens, UniProt Q15759)
Also: in the data inactive means no Kd found up to 30 µM.

Chain of STE20-like serine/threonine-protein kinase (Q9H2G2 whole entry): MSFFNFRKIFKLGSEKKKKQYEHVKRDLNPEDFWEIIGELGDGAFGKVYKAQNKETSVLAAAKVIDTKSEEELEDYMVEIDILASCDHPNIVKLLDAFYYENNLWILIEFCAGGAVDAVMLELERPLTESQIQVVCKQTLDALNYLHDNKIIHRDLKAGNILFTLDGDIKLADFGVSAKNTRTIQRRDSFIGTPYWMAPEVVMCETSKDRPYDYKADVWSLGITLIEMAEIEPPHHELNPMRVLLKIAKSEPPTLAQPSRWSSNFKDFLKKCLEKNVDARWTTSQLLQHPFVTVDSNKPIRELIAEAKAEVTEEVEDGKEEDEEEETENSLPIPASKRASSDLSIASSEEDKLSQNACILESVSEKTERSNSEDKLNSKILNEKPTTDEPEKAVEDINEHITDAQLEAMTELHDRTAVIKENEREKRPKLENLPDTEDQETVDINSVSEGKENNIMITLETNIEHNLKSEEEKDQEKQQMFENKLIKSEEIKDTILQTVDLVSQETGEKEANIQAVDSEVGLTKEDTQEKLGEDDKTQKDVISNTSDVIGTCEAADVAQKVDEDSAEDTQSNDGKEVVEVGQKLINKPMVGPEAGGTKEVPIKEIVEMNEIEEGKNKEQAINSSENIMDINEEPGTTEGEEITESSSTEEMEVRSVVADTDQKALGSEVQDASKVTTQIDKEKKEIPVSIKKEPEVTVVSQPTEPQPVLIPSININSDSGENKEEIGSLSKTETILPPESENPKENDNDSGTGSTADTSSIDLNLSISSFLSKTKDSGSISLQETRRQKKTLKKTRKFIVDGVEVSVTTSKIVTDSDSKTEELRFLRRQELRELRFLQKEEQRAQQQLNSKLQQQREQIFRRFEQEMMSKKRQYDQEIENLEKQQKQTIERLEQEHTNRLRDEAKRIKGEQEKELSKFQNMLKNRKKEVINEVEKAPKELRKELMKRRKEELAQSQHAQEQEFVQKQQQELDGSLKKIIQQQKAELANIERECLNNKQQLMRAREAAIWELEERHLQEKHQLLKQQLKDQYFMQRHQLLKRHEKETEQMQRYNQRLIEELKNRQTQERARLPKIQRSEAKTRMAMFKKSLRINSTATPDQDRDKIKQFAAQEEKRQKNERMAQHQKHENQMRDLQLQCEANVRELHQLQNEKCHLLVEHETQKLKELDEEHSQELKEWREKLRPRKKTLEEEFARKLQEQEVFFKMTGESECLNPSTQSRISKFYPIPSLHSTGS
Chain of Mitogen-activated protein kinase 11 (Q15759 whole entry): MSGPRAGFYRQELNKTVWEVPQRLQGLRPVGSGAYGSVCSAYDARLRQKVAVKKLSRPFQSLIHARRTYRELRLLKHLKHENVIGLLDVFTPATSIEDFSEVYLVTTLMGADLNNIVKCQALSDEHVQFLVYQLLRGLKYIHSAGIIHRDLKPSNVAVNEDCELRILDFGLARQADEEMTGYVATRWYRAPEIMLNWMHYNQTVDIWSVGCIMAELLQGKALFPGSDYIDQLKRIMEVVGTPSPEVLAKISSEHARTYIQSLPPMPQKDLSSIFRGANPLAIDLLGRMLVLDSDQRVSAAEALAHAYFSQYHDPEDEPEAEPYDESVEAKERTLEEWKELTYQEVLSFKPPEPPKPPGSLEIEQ
Chain of Serine/threonine-protein kinase N2 (Q16513 whole entry): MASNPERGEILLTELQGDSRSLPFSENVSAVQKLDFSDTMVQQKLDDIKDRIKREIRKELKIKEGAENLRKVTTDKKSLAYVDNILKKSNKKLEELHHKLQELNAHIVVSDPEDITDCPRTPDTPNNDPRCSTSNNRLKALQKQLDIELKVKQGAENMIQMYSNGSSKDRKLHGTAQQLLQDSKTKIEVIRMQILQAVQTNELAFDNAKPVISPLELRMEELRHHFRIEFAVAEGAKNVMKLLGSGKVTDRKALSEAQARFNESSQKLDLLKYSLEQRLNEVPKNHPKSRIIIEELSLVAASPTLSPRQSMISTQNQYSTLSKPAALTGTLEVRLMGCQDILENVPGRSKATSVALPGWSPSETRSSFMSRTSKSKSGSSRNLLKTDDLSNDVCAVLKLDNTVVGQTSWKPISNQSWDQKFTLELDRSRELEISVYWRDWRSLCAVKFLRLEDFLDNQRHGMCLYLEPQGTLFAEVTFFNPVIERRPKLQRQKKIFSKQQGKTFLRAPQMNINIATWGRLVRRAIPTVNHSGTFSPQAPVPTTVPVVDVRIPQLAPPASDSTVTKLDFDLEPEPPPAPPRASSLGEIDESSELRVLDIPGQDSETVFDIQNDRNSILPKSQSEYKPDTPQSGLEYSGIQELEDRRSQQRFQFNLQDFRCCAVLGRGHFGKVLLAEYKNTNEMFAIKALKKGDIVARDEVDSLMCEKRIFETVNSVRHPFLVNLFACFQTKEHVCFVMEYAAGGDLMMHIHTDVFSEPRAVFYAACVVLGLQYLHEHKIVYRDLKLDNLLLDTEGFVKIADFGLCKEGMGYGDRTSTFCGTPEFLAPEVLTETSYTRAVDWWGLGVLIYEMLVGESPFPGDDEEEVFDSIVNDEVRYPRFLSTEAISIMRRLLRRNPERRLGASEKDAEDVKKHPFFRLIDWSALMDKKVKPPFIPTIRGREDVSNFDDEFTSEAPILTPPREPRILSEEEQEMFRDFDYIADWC
Chain of Ras-related protein Rab-6A (P20340 whole entry): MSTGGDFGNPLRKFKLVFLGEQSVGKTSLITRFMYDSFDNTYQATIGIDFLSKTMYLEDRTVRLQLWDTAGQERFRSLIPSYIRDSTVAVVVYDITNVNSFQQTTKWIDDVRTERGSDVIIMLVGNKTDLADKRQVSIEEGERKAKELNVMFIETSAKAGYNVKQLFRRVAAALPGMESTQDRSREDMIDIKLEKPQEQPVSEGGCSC

| Structure (SMILES) | Kd [1] | Kd [2] | Kd (Pyridoxal kinase) | Kd [3] | Kd (Ephrin type-B receptor 2) | Kd [4] | Kd [5] | Kd [6] |
| --- | --- | --- | --- | --- | --- | --- | --- | --- |
| O=S(=O)(c1cccc2c(O)nccc12)N1CCCNCC1 [HYDROXYFASUDIL] | > 30 µM (inactive) | 2.26 µM (active) | > 30 µM (inactive) | > 30 µM (inactive) | > 30 µM (inactive) | > 30 µM (inactive) | > 30 µM (inactive) | > 30 µM (inactive) |
| C#Cc1cccc(Nc2ncnc3cc4c(cc23)OCCOCCOCCO4)c1 [ICOTINIB] | > 30 µM (inactive) | > 30 µM (inactive) | > 30 µM (inactive) | 1.05 µM (active) | > 30 µM (inactive) | > 30 µM (inactive) | > 30 µM (inactive) | > 30 µM (inactive) |
| COc1cc2ncnc3c2cc1OCCCCCN(C)Cc1ccc(Br)cc1N3 [JNJ-26483327] | > 30 µM (inactive) | > 30 µM (inactive) | > 30 µM (inactive) | > 30 µM (inactive) | > 30 µM (inactive) | 3.97 µM | > 30 µM (inactive) | > 30 µM (inactive) |
| Cc1ccc(C(=O)Nc2ccc(Oc3cc4cnn(C)c4cc3-c3cn[nH]c3)c(F)c2)c(=O)n1-c1ccc(F)cc1 [MERESTINIB] | > 30 µM (inactive) | > 30 µM (inactive) | > 30 µM (inactive) | > 30 µM (inactive) | > 30 µM (inactive) | > 30 µM (inactive) | > 30 µM (inactive) | > 30 µM (inactive) |
| O=C(NOC[C@H](O)CO)c1ccc(F)c(F)c1Nc1ccc(I)cc1F [MIRDAMETINIB] | > 30 µM (inactive) | > 30 µM (inactive) | > 30 µM (inactive) | > 30 µM (inactive) | > 30 µM (inactive) | > 30 µM (inactive) | > 30 µM (inactive) | > 30 µM (inactive) |
| C=CC(=O)Nc1cc(Nc2nccc(-c3cn(C)c4ccccc34)n2)c(OC)cc1N(C)CCN(C)C [OSIMERTINIB] | > 30 µM (inactive) | > 30 µM (inactive) | > 30 µM (inactive) | > 30 µM (inactive) | > 30 µM (inactive) | > 30 µM (inactive) | > 30 µM (inactive) | > 30 µM (inactive) |
| FC(F)(F)c1ccc(CNc2ccc(Cc3c[nH]c4ncc(Cl)cc34)cn2)cn1 [PEXIDARTINIB] | > 30 µM (inactive) | > 30 µM (inactive) | > 30 µM (inactive) | > 30 µM (inactive) | > 30 µM (inactive) | > 30 µM (inactive) | > 30 µM (inactive) | > 30 µM (inactive) |
| CC(C)CC(=O)Nc1[nH]nc2c1CN(C(=O)C1CCN(C)CC1)C2(C)C [PHA-793887] | > 30 µM (inactive) | > 30 µM (inactive) | > 30 µM (inactive) | > 30 µM (inactive) | > 30 µM (inactive) | > 30 µM (inactive) | > 30 µM (inactive) | > 30 µM (inactive) |
| O=C(NC[C@H](O)CO)c1ccncc1Nc1ccc(I)cc1F [PIMASERTIB] | > 30 µM (inactive) | > 30 µM (inactive) | > 30 µM (inactive) | > 30 µM (inactive) | > 30 µM (inactive) | > 30 µM (inactive) | > 30 µM (inactive) | > 30 µM (inactive) |
| COc1cc(F)c(F)c(Nc2ccc(I)cc2F)c1NS(=O)(=O)C1(C[C@H](O)CO)CC1 [REFAMETINIB] | > 30 µM (inactive) | > 30 µM (inactive) | > 30 µM (inactive) | > 30 µM (inactive) | > 30 µM (inactive) | > 30 µM (inactive) | > 30 µM (inactive) | > 30 µM (inactive) |
| COCCN1CCN(Cc2ccc(-c3n[nH]c4c3C(=O)c3c(NC(=O)NN5CCOCC5)cccc3-4)cc2)CC1 [RGB-286638] | 1.9 µM (active) | > 30 µM (inactive) | > 30 µM (inactive) | > 30 µM (inactive) | > 30 µM (inactive) | > 30 µM (inactive) | > 30 µM (inactive) | > 30 µM (inactive) |
| O=C(O)c1ccc2c(c1)nc(Nc1cccc(Cl)c1)c1ccncc12 [SILMITASERTIB] | > 30 µM (inactive) | > 30 µM (inactive) | > 30 µM (inactive) | 0.22 µM (active) | > 30 µM (inactive) | > 30 µM (inactive) | > 30 µM (inactive) | > 30 µM (inactive) |
| O[C@H]1CC[C@H](Nc2ncc3nc(Nc4c(F)cc(F)cc4F)n([C@H]4CCOC4)c3n2)CC1 [TANZISERTIB] | > 30 µM (inactive) | > 30 µM (inactive) | > 30 µM (inactive) | > 30 µM (inactive) | > 30 µM (inactive) | > 30 µM (inactive) | > 30 µM (inactive) | > 30 µM (inactive) |

The remaining lines, values ahead:

| Kd [1] | Kd [2] | Kd (Pyridoxal kinase) | Kd [3] | Kd (Ephrin type-B receptor 2) | Kd [4] | Kd [5] | Kd [6] | Structure (SMILES) |
| --- | --- | --- | --- | --- | --- | --- | --- | --- |
| > 30 µM (inactive) | > 30 µM (inactive) | > 30 µM (inactive) | > 30 µM (inactive) | > 30 µM (inactive) | 12.6 µM (active) | > 30 µM (inactive) | > 30 µM (inactive) | COc1cccc2cc(-c3nc([C@H]4CC[C@H](C(=O)O)CC4)n4ncnc(N)c34)[nH]c12 [OSI-027] |
| > 30 µM (inactive) | > 30 µM (inactive) | > 30 µM (inactive) | > 30 µM (inactive) | > 30 µM (inactive) | > 30 µM (inactive) | > 30 µM (inactive) | > 30 µM (inactive) | O=C(Nc1ccc(OC(F)(F)F)cc1)c1sccc1NCc1ccnc2ccccc12 [OSI-930] |
| > 30 µM (inactive) | > 30 µM (inactive) | > 30 µM (inactive) | > 30 µM (inactive) | > 30 µM (inactive) | > 30 µM (inactive) | > 30 µM (inactive) | > 30 µM (inactive) | Cc1cc(C(=O)Nc2cc(Oc3ccc4nc(NC(=O)C5CC5)cn4n3)ccc2C)n(C)n1 [TAK-593] |
| > 30 µM (inactive) | > 30 µM (inactive) | > 30 µM (inactive) | > 30 µM (inactive) | > 30 µM (inactive) | > 30 µM (inactive) | > 30 µM (inactive) | > 30 µM (inactive) | Cn1c(=O)c(F)c(Nc2ccc(I)cc2F)c2c(=O)n(C[C@@H](O)CO)cnc21 [TAK-733] |
